According to ChEMBL document CHEMBL1201862, “PubChem BioAssay data set” (2004):
Active and inactive are the calls of the source. For most assays here, no stated cut-off is given here; in the data, actives have a measured IC50 and inactives only a lower limit.

Tests used:
[1] = molecular target: T1, Tyrosine-protein phosphatase non-receptor type 22 (Homo sapiens, UniProt Q9Y2R2); assay: SAR LYP1 Fluorescent Assay using OMFP substrate for In Vitro dose response studies - Set 3. [Related pubchem assays (depositor defined):AID1779, AID1784, AID2140, AID2686]; format: functional
T1 sequence (Q9Y2R2 whole entry): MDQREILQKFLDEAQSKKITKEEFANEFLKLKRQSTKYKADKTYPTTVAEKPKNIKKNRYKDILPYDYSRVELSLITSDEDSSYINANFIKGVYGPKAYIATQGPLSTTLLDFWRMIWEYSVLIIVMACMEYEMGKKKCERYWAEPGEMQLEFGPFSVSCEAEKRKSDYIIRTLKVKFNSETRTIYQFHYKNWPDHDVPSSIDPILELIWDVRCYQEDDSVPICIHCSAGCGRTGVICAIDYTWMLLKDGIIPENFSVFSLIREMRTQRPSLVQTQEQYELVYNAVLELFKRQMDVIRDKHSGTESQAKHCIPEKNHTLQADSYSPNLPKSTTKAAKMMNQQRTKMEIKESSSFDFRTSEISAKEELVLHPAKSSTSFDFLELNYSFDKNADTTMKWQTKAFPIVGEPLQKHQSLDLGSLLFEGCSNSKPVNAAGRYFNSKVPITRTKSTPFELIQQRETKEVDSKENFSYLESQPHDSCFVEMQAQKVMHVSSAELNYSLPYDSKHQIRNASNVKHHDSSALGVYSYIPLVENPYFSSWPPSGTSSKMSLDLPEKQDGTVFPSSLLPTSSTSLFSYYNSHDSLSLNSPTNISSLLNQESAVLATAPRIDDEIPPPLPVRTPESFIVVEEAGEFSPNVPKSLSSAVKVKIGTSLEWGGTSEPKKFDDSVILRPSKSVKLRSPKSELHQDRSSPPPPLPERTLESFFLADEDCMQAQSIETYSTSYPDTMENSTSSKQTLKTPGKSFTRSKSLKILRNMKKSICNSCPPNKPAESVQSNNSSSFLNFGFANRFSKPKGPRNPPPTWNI

[2] = molecular target: Tyrosine-protein phosphatase non-receptor type 12 (Homo sapiens, UniProt Q05209); assay: SAR Selectivity Analysis of small molecule inhibitors of PEST using pCAP in a fluorescence assay. [Related pubchem assays (depositor defined):AID1779, AID1784, AID2135]; format: functional
[3] = molecular target: Eukaryotic translation initiation factor 4E (Mus musculus, UniProt P63073); assay: blockers of eIF4G binding by eIF4E – biochemical, TR-FRET, dose response (AID 855); format: functional;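 further: potency for disrupting eIF4E binding to eIF4GI seen as loss of FRET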
[4] = molecular target: T2, Tyrosine-protein phosphatase non-receptor type 7 (Homo sapiens, UniProt P35236); assay: inhibition of hematopoietic tyrosine phosphatase HePTP – biochemical, set 2, SAR follow-up (AID 449736); format: functional
T2 sequence (P35236 whole entry): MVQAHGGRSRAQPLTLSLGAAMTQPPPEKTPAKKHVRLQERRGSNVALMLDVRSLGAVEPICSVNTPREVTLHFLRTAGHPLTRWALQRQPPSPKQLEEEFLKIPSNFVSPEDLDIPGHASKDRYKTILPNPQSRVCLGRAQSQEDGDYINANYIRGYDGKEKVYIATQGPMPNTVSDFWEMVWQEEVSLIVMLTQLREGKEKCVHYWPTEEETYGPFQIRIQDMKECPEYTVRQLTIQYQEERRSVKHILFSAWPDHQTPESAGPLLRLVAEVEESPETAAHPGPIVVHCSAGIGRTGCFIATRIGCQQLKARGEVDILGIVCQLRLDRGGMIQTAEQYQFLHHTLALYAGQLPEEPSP

[5] = molecular target: T1, Tyrosine-protein phosphatase non-receptor type 22; assay: inhibition of lymphoid tyrosine phosphatase LYP – biochemical, pCAP fluorogenic substrate, fluorescence, set 3, SAR follow-up (AID 449727); format: functional
Hexokinase HKDC1 = molecular target: T3, Hexokinase HKDC1 (Homo sapiens, UniProt Q2TB90); assay: activation of HKDC1 glucose phosphorylation – biochemical, W721R variant, dose response (AID 504730); format: functional
T3 sequence (Q2TB90 whole entry): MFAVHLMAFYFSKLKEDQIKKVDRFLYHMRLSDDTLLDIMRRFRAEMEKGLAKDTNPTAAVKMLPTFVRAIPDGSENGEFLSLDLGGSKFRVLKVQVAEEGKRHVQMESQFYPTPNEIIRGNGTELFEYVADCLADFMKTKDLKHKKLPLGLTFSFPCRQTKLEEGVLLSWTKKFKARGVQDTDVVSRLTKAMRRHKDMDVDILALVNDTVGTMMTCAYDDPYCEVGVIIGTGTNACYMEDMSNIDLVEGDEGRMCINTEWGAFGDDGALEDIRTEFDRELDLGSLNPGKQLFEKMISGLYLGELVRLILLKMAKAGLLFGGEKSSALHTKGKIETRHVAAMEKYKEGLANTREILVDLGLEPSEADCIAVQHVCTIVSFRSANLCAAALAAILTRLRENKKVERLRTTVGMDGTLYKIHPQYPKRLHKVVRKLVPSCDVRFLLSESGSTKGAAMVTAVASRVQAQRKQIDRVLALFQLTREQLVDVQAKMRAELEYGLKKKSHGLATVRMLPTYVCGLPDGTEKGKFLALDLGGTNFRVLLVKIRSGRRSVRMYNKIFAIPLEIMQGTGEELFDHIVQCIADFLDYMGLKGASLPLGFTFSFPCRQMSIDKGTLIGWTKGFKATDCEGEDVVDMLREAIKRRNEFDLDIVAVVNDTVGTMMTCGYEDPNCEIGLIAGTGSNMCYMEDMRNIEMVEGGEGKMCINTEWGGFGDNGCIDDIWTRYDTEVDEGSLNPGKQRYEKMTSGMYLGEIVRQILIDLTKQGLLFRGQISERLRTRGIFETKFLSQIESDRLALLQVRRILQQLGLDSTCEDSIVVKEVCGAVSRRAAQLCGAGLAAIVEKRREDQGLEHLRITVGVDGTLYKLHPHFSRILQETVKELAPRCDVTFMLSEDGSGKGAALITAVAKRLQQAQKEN

[6] = molecular target: DNA dC->dU-editing enzyme APOBEC-3G (Homo sapiens, UniProt Q9HC16); format: functional;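 further: Dose-response counterscreen measuring inhibition of APOBEC3G DNA deaminase activity, run while confirming APOBEC3A inhibitors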
[7] = molecular target: DNA dC->dU-editing enzyme APOBEC-3A (Homo sapiens, UniProt P31941); assay: Dose Response confirmation of small molecule APOBEC3A DNA Deaminase Inhibitors via a fluorescence-based single-stranded DNA deaminase assay. [Related pubchem assays (depositor defined):AID493011, AID493024]; format: functional
[8] = molecular target: Induced myeloid leukemia cell differentiation protein Mcl-1 (Homo sapiens, UniProt Q07820); format: functional
[9] = molecular target: T4, Voltage-gated N-type calcium channel alpha-1B subunit/Amyloid beta A4 precursor protein-binding family A member 1 (Homo sapiens, UniProt Q00975+Q02410); format: protein assay
[10] = molecular target: T5, Carboxy-terminal domain RNA polymerase II polypeptide A small phosphatase 1 (Homo sapiens, UniProt Q9GZU7); assay: CTDSP1 inhibitors, concentration-response, biochemical, absorbance readout, ultra-high-throughput screen actives (AID 540297); format: functional
T5 sequence (Q9GZU7 whole entry): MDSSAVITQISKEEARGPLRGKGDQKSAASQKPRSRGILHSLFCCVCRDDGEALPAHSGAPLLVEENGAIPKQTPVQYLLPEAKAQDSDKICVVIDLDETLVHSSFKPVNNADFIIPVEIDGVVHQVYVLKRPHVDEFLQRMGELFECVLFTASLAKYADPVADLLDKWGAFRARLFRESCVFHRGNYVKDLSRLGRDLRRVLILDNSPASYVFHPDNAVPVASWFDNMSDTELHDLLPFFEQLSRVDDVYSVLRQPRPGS

[11] = molecular target: T4, Voltage-gated N-type calcium channel alpha-1B subunit/Amyloid beta A4 precursor protein-binding family A member 1; format: protein assay; remark: listed apart in the source
Genome polyprotein = Genome polyprotein (dengue virus type 2, UniProt P29990); assay: flavivirus cap methylation enzyme inhibition – biochemical, confirmation dose response, primary screen (AID 588689); format: functional
Large T antigen = Large T antigen (Simian virus 40, UniProt P03070); format: functional, Betapolyomavirus macacae;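 further: Confirmatory-stage PubChem screen for compounds that inhibit SV40 T antigen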
[12] = molecular target: T4, Voltage-gated N-type calcium channel alpha-1B subunit/Amyloid beta A4 precursor protein-binding family A member 1; assay: disruptors of Mint-PDZ/N-type channel peptide interaction – biochemical, HTRF, SAR follow-up (AID 2489); format: functional
Troponin, cardiac muscle = Troponin, cardiac muscle (Homo sapiens, UniProt P19429+P45379+P63316); assay: Fluorescence-based biochemical high throughput dose response assay for activators of the calcium sensitivity of cardiac Regulated Thin Filaments (RTF). [Related pubchem assays (depositor defined):AID493008, AID493018, AID504382, AID504383]; format: protein-complex assay
[13] = molecular target: Alkaline phosphatase, placental type (Homo sapiens, UniProt P05187); assay: human placental alkaline phosphatase inhibition – biochemical, luminescence, confirmation (AID 1512); format: functional
[14] = molecular target: T6, Alkaline phosphatase, tissue-nonspecific isozyme (Homo sapiens, UniProt P05186); assay: potency against alkaline phosphatase TNAP – biochemical, luminescent, dose response, SAR follow-up (AID 1056)
T6 sequence (P05186 whole entry): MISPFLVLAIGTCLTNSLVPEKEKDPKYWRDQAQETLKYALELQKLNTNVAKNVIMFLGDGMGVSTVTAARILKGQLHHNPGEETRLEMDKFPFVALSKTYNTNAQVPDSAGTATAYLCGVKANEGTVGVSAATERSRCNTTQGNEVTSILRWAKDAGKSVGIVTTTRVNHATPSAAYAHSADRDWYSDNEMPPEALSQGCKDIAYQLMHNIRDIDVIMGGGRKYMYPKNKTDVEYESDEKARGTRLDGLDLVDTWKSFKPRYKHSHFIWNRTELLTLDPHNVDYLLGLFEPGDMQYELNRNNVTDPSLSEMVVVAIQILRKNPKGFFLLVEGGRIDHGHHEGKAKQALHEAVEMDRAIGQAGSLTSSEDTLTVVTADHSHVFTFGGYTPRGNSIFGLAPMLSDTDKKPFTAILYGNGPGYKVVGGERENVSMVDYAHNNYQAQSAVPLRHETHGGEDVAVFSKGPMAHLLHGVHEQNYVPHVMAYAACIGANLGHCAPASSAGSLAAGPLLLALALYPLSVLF

[15] = molecular target: Glyceraldehyde-3-phosphate dehydrogenase (Homo sapiens, UniProt P04406)

T4 sequence (Q00975 whole entry, the tested form may be a part): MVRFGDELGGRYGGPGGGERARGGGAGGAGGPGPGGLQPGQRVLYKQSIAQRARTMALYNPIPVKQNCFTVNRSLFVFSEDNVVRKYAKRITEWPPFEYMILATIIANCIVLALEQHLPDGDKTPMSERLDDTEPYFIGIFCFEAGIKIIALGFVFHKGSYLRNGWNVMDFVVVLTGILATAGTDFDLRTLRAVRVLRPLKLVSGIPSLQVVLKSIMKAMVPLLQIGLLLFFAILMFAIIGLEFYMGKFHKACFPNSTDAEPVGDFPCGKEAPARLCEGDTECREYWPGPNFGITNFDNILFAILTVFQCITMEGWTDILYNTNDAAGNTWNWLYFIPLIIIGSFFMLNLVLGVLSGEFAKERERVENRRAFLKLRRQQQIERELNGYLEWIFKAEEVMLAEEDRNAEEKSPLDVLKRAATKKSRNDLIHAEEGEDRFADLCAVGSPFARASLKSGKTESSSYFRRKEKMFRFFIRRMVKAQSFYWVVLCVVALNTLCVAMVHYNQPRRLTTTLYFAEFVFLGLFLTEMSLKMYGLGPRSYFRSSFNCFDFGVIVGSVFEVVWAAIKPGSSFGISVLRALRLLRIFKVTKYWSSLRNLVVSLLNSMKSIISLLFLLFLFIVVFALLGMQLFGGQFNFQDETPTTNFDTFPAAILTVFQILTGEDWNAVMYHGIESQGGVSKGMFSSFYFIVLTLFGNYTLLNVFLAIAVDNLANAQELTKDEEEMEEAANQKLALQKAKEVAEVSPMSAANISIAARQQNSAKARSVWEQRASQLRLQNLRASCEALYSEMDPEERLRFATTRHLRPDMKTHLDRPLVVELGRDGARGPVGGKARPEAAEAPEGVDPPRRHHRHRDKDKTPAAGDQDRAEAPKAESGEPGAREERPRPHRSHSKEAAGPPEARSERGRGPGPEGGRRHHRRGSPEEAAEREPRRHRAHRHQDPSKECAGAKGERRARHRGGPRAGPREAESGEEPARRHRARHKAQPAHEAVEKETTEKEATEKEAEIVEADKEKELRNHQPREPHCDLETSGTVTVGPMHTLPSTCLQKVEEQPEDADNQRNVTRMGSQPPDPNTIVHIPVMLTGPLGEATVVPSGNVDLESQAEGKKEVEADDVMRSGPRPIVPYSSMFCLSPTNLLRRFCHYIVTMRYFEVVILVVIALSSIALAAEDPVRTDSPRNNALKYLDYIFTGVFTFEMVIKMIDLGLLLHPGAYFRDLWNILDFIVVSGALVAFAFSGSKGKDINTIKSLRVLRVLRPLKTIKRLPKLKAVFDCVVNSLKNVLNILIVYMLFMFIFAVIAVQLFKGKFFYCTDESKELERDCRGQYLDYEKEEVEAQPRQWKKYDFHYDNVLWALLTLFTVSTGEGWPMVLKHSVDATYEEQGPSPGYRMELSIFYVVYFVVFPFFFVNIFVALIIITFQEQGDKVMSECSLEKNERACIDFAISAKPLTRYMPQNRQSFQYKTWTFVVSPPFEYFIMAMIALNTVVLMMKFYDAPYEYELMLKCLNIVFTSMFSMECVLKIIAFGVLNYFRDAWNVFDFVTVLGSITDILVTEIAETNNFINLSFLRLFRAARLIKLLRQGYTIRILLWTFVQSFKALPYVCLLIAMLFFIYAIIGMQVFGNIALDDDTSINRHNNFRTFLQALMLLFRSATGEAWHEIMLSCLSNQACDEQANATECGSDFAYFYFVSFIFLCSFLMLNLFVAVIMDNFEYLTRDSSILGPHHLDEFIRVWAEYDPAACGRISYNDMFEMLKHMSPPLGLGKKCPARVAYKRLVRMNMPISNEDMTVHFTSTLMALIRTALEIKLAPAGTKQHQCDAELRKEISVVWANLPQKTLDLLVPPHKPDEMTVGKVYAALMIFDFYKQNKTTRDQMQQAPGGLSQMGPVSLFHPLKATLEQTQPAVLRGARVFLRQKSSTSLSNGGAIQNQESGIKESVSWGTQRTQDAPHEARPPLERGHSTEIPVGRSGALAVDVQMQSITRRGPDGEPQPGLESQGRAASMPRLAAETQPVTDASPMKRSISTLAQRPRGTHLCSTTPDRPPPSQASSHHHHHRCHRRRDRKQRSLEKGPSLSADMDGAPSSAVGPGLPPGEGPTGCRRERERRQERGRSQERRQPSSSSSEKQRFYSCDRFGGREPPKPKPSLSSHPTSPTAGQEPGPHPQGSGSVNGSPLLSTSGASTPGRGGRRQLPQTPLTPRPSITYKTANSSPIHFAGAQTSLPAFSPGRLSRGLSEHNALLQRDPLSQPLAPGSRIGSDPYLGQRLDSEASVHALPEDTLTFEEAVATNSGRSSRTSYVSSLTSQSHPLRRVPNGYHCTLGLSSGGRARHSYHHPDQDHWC
T4 sequence (Q02410 whole entry, the tested form may be a part): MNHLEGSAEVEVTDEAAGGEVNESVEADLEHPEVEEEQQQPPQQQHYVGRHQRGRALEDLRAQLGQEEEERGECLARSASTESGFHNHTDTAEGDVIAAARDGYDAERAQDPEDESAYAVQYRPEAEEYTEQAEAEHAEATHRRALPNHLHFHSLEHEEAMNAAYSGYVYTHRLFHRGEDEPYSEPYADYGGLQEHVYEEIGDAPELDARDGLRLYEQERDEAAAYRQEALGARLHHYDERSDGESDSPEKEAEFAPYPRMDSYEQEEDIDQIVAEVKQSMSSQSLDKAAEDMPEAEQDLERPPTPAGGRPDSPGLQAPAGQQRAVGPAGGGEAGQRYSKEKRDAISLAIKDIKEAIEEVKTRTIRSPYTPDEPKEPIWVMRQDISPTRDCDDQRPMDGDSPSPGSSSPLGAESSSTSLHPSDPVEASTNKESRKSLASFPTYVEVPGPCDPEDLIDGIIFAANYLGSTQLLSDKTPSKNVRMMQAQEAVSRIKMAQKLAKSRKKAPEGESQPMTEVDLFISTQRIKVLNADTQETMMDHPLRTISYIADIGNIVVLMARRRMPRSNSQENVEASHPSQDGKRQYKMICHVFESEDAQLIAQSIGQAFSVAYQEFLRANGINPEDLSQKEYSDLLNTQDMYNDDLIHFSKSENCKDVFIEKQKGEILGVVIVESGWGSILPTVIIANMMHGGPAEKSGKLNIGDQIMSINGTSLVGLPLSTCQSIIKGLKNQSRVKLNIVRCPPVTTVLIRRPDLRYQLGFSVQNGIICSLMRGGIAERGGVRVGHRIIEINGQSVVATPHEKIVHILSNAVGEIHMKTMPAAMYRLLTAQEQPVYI
Chain of Alkaline phosphatase, placental type (P05187 whole entry): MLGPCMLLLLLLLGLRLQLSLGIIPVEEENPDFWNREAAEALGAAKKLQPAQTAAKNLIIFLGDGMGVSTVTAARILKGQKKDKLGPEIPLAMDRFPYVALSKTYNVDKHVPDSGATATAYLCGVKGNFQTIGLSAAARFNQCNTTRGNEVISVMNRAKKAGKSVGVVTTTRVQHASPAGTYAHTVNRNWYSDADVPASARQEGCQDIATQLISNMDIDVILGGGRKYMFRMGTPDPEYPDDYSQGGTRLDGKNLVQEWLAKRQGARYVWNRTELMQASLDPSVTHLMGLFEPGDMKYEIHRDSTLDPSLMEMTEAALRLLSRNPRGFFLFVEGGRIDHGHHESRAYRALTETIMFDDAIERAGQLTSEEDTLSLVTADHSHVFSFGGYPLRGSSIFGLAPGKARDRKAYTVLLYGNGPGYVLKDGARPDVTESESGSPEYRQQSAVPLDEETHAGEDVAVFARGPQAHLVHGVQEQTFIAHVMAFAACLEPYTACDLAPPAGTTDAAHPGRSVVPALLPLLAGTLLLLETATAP
Chain of DNA dC->dU-editing enzyme APOBEC-3G (Q9HC16 whole entry): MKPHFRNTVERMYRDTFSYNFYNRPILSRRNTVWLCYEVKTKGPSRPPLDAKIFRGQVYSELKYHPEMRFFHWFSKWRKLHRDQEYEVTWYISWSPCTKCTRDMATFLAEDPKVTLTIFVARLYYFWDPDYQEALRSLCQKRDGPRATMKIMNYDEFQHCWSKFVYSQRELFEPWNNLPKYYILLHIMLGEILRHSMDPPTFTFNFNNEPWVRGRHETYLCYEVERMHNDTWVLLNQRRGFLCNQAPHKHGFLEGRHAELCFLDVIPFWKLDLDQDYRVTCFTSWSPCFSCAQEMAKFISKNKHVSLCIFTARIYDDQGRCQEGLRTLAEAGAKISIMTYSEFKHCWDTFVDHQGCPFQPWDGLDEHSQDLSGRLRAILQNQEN
Chain of DNA dC->dU-editing enzyme APOBEC-3A (P31941 whole entry): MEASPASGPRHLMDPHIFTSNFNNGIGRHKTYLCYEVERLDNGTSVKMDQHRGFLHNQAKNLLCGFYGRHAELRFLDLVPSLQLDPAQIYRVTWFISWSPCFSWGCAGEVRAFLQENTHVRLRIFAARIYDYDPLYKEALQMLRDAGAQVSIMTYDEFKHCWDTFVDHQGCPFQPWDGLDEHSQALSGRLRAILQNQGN
Chain of Tyrosine-protein phosphatase non-receptor type 12 (Q05209 whole entry): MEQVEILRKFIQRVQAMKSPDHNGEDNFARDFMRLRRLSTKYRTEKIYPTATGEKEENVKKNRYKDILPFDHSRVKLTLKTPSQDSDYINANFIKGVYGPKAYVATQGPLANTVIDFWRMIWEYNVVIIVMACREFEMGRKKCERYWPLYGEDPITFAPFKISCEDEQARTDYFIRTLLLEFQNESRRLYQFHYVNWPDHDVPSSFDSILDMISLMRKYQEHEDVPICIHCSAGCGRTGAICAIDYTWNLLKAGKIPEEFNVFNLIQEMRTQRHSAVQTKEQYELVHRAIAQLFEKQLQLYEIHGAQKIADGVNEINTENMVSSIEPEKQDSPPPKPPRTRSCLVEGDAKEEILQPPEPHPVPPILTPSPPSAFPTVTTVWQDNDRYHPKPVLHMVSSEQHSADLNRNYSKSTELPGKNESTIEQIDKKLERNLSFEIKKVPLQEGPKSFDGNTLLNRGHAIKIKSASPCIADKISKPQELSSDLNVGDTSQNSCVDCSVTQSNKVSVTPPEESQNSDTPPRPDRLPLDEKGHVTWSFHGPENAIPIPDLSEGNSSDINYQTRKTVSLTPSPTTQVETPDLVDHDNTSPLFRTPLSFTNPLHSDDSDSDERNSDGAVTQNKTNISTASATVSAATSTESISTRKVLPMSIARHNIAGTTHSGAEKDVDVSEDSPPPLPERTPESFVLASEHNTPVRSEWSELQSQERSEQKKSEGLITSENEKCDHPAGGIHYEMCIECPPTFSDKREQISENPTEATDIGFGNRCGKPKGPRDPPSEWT

Compound: COc1ccc(CN2C(=O)/C(=C/c3ccc(-c4ccc(Cl)c(C(=O)O)c4)o3)SC2=S)cc1
- IC50 [1]: 44.5 µM (active)
- IC50 [2]: 3.13 µM (active)
- IC50 [3]: 16.4 µM (active)
- IC50 [4]: 331 nM (active)
- IC50 [5]: 8.93 µM (active)

Compound: O=C(COC(=O)c1n[nH]c2ccccc12)c1cccc(Br)c1
- EC50 (Hexokinase HKDC1): > 80 µM (inactive)

Compound: CSc1ccc(S(=O)(=O)N2CCC(C(=O)NCc3ccccn3)CC2)cc1
- IC50 [6]: 13.9 µM (active)
- IC50 [7]: 6.18 µM (active)

Compound: O=C(O)CCn1cc(C=C2C(=O)NC(=S)NC2=O)c(-c2cccc(Cl)c2)n1
- IC50 [8]: 2.87 µM (active)
- IC50 [9]: 13 µM (active)
- IC50 [10]: 10.1 µM (active)
- IC50 [11]: 30.7 µM (active)
- IC50 (Genome polyprotein): 10.9 µM (active)
- IC50 (Large T antigen): 76.3 µM (active)

Compound: CC(=O)NS(=O)(=O)c1ccc(NC(=O)/C=C/c2ccc(C)o2)cc1
- IC50 [9]: 2.19 µM (active)
- IC50 [12]: > 56.8 µM (inactive)
- IC50 [11]: 6.9 µM (active)

Compound: CC(C)(C)OC(=O)N1CC(O)CC1C(=O)OCC(=O)c1ccc(-c2ccccc2)cc1 (centres undefined)
- IC50 [6]: 2.89 µM (active)
- IC50 [7]: 1.79 µM (active)

Compound: O=C1c2ccccc2C(Nc2cccnc2)N1Cc1ccccc1Cl (centres undefined)
- EC50 (Troponin, cardiac muscle): > 71.5 µM (inactive)

Compound: CC(C)(C)C1(C)Oc2cccc(O)c2O1 (centres undefined)
- IC50 [13]: > 100 µM (inactive)
- IC50 [14]: > 100 µM (inactive)

Compound: CN1CCN(C(=O)c2cc(-c3ccc(Cl)cc3Cl)n[nH]2)CC1
- IC50 [13]: > 100 µM (inactive)
- IC50 [15]: > 100 µM (not active)
